Data as given in patent US10479780B2, “Aminopyrazole derivatives” (Chugai Seiyaku Kabushiki Kaisha, priority 2015, dated 2019).

Columns and labels:
Format in all cases: biochemical
human Yes1 enzyme = target: T1, human Yes1 enzyme (Homo sapiens, UniProt P07947); experiment: Yes1 enzyme inhibitory activity (time-resolved fluorometry, biotinylated peptide phosphorylation); conditions: biotinylated peptide phosphorylation, read-out: YES_IC50
T1 construct: made in house
How it was run: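 Inhibition was expressed against a compound-free control to give IC50, using TR-FRET read-out (Eu-cryptate anti-pTyr antibody, streptavidin-XL665).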

human Src enzyme = target: T2, human Src enzyme (Homo sapiens, UniProt P12931); experiment: Src enzyme inhibitory activity (time-resolved fluorometry, biotinylated peptide phosphorylation); conditions: biotinylated peptide phosphorylation, read-out: SRC_IC50
T2 construct: purchased Carna Biosciences, Inc. 08-173
How it was run: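 Compounds were tested for blocking tyrosine phosphorylation of a biotinylated peptide substrate by recombinant human Src. Phosphorylated product was quantified by time-resolved fluorometry using europium cryptate and XL665 conjugates, and IC50 was calculated against the compound-free control.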

human Lck enzyme = target: T3, human Lck enzyme (Homo sapiens, UniProt P06239); experiment: Lck enzyme inhibitory activity (time-resolved fluorometry, biotinylated peptide phosphorylation); conditions: biotinylated peptide phosphorylation, read-out: LCK_IC50
T3 construct: purchased Carna Biosciences, Inc. 08-170
How it was run: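 Readout pairs a europium cryptate-labelled anti-phosphotyrosine antibody with XL665-streptavidin, measured by time-resolved fluorescence. IC50 derived from percent inhibition against untreated controls.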

T1 sequence (P07947 whole entry): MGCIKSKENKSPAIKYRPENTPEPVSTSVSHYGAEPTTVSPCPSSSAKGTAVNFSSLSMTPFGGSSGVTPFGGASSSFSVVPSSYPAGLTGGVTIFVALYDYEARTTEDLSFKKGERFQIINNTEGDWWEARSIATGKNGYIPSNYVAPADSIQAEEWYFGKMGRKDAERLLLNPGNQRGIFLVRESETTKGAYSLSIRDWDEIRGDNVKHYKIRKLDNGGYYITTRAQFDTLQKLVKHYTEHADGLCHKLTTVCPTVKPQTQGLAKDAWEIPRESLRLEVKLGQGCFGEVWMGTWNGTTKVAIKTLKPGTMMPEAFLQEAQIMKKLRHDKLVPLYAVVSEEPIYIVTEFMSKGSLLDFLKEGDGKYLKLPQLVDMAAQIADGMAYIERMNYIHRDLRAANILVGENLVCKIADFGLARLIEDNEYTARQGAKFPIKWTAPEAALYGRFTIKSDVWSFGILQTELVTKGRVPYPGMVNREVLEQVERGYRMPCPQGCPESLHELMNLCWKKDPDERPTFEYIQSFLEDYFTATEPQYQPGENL
T2 sequence (P12931 whole entry): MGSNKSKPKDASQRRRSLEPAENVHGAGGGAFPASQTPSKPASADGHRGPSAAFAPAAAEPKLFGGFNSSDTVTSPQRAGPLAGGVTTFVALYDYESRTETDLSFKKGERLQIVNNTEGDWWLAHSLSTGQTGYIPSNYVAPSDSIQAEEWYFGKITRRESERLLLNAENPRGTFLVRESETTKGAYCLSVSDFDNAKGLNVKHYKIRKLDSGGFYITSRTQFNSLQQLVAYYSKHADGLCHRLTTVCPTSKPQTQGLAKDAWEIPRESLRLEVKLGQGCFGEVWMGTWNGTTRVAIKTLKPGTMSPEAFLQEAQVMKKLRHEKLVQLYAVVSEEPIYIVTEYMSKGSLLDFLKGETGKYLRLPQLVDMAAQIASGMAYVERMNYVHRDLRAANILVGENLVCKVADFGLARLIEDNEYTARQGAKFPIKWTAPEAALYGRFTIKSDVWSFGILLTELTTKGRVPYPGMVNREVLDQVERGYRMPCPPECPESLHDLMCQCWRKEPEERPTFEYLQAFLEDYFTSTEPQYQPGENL
T3 sequence (P06239 whole entry): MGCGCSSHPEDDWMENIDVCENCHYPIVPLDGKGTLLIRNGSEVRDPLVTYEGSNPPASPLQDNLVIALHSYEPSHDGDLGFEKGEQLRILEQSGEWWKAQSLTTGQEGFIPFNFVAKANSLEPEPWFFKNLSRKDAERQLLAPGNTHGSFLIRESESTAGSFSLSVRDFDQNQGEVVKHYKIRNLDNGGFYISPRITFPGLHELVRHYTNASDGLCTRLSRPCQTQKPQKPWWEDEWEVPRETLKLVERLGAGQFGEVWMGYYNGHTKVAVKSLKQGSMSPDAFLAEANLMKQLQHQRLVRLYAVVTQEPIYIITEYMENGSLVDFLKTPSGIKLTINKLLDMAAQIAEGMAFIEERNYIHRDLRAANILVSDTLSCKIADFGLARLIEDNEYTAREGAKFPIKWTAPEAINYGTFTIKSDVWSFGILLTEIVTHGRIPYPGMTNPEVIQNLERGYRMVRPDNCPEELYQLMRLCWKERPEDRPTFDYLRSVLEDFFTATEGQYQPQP

| Structure (SMILES) | IC50 (human Yes1 enzyme) [nM] | IC50 (human Src enzyme) [nM] | IC50 (human Lck enzyme) [nM] |
| --- | --- | --- | --- |
| COc1cc2cc(C(=O)c3cnn(-c4cnc(Oc5ccccc5F)cc4C)c3N)[nH]c2cc1NS(=O)(=O)CCCF [Example 4-13-001, N-{2-{5-amino-1-[6-(2-fluorophenoxy)-4-methylpyridin-3-yl]pyrazole-4-carbonyl}-5-methoxy-1H-indol-6-yl}-3-fluoropropane-1-sulfonamide] | 2.4 | 76 | 26 |
| COc1cc2cc(C(=O)c3cnn(-c4ccc(Oc5ccccc5F)cc4C)c3N)[nH]c2cc1NS(=O)(=O)CCCF [Example 4-13-002, N-[2-[5-amino-1-[4-(2-fluorophenoxy)-2-methylphenyl]pyrazole-4-carbonyl]-5-methoxy-1H-indol-6-yl]-3-fluoropropane-1-sulfonamide] | 2.4 | 27 | 20 |
| COc1cc2cc(C(=O)c3cnn(-c4cnc(Oc5ccccc5F)cc4C)c3N)[nH]c2cc1N1CCCS1(=O)=O [Example 4-14-001, {5-amino-1-[6-(2-fluorophenoxy)-4-methylpyridin-3-yl]pyrazol-4-yl}-[6-(1,1-dioxo-1,2-thiazolidin-2-yl)-5-methoxy-1H-indol-2-yl]methanone] | 1.2 | 21 | 5.8 |
| COc1cc2cc(C(=O)c3cnn(-c4ccc(Oc5ccccc5F)cc4C)c3N)[nH]c2cc1N1CCCS1(=O)=O [Example 4-14-002, [5-amino-1-[4-(2-fluorophenoxy)-2-methylphenyl]pyrazol-4-yl]-[6-(1,1-dioxo-1,2-thiazolidin-2-yl)-5-methoxy-1H-indol-2-yl]methanone] | 1.4 | 8.8 | 5.6 |
| Cc1cc2cc(C(=O)c3cnn(-c4cnc(Oc5ccccc5F)cc4C)c3N)[nH]c2cc1NS(=O)(=O)CC(=O)N1CCOCC1 [Example 4-15-001, N-(2-(5-amino-1-(6-(2-fluorophenoxy)-4-methylpyridin-3-yl)-1H-pyrazole-4-carbonyl)-5-methyl-1H-indol-6-yl)-2-morpholino-2-oxoethanesulfonamide] | 1.1 | 18 | 9.9 |
| Cc1cc2cc(C(=O)c3cnn(-c4cnc(Oc5ccccc5F)cc4C)c3N)[nH]c2cc1N1CCCS1(=O)=O [Example 4-16-001, {5-amino-1-[6-(2-fluorophenoxy)-4-methylpyridin-3-yl]pyrazol-4-yl}-[6-(1,1-dioxo-1,2-thiazolidin-2-yl)-5-methyl-1H-indol-2-yl]methanone] | 0.62 | 16 | 4.5 |
| CC(=O)N1CCC(c2cc3[nH]c(C(=O)c4cnn(-c5cnc(Oc6c(F)cccc6F)cc5C)c4N)cc3cc2OCC(F)F)CC1 [Example 4-17-001, 1-{4-{2-{5-amino-1-{6-(2,6-difluorophenoxy)-4-methylpyridin-3-yl}pyrazole-4-carbonyl}-5-(2,2-difluoroethoxy)-1H-indol-6-yl}piperidin-1-yl}ethanone] | 4.5 | 26 | 12 |
| CC(=O)N1CCC(c2cc3[nH]c(C(=O)c4cnn(-c5ccc(Oc6ccccc6F)cc5C)c4N)cc3cc2OC(F)F)CC1 [Example 4-17-002, 1-[4-[2-[5-amino-1-[4-(2-fluorophenoxy)-2-methylphenyl]pyrazole-4-carbonyl]-5-(difluoromethoxy)-1H-indol-6-yl]piperidin-1-yl]ethanone] | 10 | 43 | 18 |
| Cc1cc(Oc2ccccc2F)ccc1-n1ncc(C(=O)c2cc3cc(OC(F)F)c(C4CCN(S(C)(=O)=O)CC4)cc3[nH]2)c1N [Example 4-17-003, [5-amino-1-[4-(2-fluorophenoxy)-2-methylphenyl]pyrazol-4-yl]-[5-(difluoromethoxy)-6-(1-methylsulfonylpiperidin-4-yl)-1H-indol-2-yl]methanone] | 7.4 | 23 | 20 |
| Cc1cc(Oc2ccccc2F)ccc1-n1ncc(C(=O)c2cc3cc(OC(F)F)c(C4CCN(S(=O)(=O)C5CC5)CC4)cc3[nH]2)c1N [Example 4-17-004, [5-amino-1-[4-(2-fluorophenoxy)-2-methylphenyl]pyrazol-4-yl]-[6-(1-cyclopropylsulfonylpiperidin-4-yl)-5-(difluoromethoxy)-1H-indol-2-yl]methanone] | 9.6 | 22 | 17 |
| CC(=O)N1CCC(c2cc3[nH]c(C(=O)c4cnn(-c5c(C)cc(Oc6ccccc6F)cc5F)c4N)cc3cc2OC(F)F)CC1 [Example 4-17-005, 1-[4-[2-[5-amino-1-[2-fluoro-4-(2-fluorophenoxy)-6-methylphenyl]pyrazole-4-carbonyl]-5-(difluoromethoxy)-1H-indol-6-yl]piperidin-1-yl]ethanone] | 2.9 | 36 | 17 |
| Cc1cc(Oc2ccccc2F)cc(F)c1-n1ncc(C(=O)c2cc3cc(OC(F)F)c(C4CCN(S(C)(=O)=O)CC4)cc3[nH]2)c1N [Example 4-17-006, [5-amino-1-[2-fluoro-4-(2-fluorophenoxy)-6-methylphenyl]pyrazol-4-yl]-[5-(difluoromethoxy)-6-(1-methylsulfonylpiperidin-4-yl)-1H-indol-2-yl]methanone] | 3.4 | 25 | 13 |
| Cc1cc(Oc2ccccc2F)cc(F)c1-n1ncc(C(=O)c2cc3cc(OC(F)F)c(C4CCN(S(=O)(=O)C5CC5)CC4)cc3[nH]2)c1N [Example 4-17-007, [5-amino-1-[2-fluoro-4-(2-fluorophenoxy)-6-methylphenyl]pyrazol-4-yl]-[6-(1-cyclopropylsulfonylpiperidin-4-yl)-5-(difluoromethoxy)-1H-indol-2-yl]methanone] | 3.9 | 22 | 12 |
| CC(=O)N1CCC(c2cc3[nH]c(C(=O)c4cnn(-c5cnc(Oc6ccccc6F)cc5C)c4N)cc3cc2OC(F)F)CC1 [Example 4-17-008, 1-[4-[2-[5-amino-1-[6-(2-fluorophenoxy)-4-methylpyridin-3-yl]pyrazole-4-carbonyl]-5-(difluoromethoxy)-1H-indol-6-yl]piperidin-1-yl]ethanone] | 1.6 | 13 | 5.5 |
| Cc1cc(Oc2ccccc2F)ncc1-n1ncc(C(=O)c2cc3cc(OC(F)F)c(C4CCN(S(C)(=O)=O)CC4)cc3[nH]2)c1N [Example 4-17-009, [5-amino-1-[6-(2-fluorophenoxy)-4-methylpyridin-3-yl]pyrazol-4-yl]-[5-(difluoromethoxy)-6-(1-methylsulfonylpiperidin-4-yl)-1H-indol-2-yl]methanone] | 1.8 | 14 | 4.9 |
| Cc1cc(Oc2ccccc2F)ncc1-n1ncc(C(=O)c2cc3cc(OC(F)F)c(C4CCN(S(=O)(=O)C5CC5)CC4)cc3[nH]2)c1N [Example 4-17-010, [5-amino-1-[6-(2-fluorophenoxy)-4-methylpyridin-3-yl]pyrazol-4-yl]-[6-(1-cyclopropylsulfonylpiperidin-4-yl)-5-(difluoromethoxy)-1H-indol-2-yl]methanone] | 2 | 99 | 45 |
| CC(=O)N1CCC(c2cc3[nH]c(C(=O)c4cnn(-c5cnc(Oc6c(F)cccc6F)cc5C)c4N)cc3cc2OC(F)F)CC1 [Example 4-17-011, 1-[4-[2-[5-amino-1-[6-(2,6-difluorophenoxy)-4-methylpyridin-3-yl]pyrazole-4-carbonyl]-5-(difluoromethoxy)-1H-indol-6-yl]piperidin-1-yl]ethanone] | 13 | 43 | 23 |
